Consider ten cell lines from the supplement of paper PMC10307832.

What all share (experiment): relative viability (nuclei count vs DMSO), 5 days (fraction); higher = more cells survive
Compound in the experiment “BMX-IN-1 + Phenformin”: C=CC(=O)Nc1cc(-n2c(=O)ccc3cnc4ccc(-c5ccc(NS(C)(=O)=O)cc5)cc4c32)ccc1C [BMX-IN-1] + N=C(N)NC(=N)NCCc1ccccc1 [Phenformin] (partner 250 µM)
Put shortly:
(§1)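 Lung cancer cell lines were pin-tool dosed in 1536-well plates on the day after seeding, with either a lone drug or a fixed anchor-drug dose plus five library-drug doses (not always all listed) in √10 steps. Nuclei were counted on 4× images after 5 days. Relative viability is the ratio of treated-well to vehicle-well nuclei counts, with each value a median of duplicate plates.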

Compound in the experiment “PAC-1 + Bortezomib”: C=CCc1cccc(/C=N/NC(=O)CN2CCN(Cc3ccccc3)CC2)c1O [PAC-1] + CC(C)C[C@H](NC(=O)[C@H](Cc1ccccc1)NC(=O)c1cnccn1)B(O)O [Bortezomib] (partner 0.002 µM)
The method, boiled down:
as §1

Compound in the experiment “BMX-IN-1 + Dasatinib”: C=CC(=O)Nc1cc(-n2c(=O)ccc3cnc4ccc(-c5ccc(NS(C)(=O)=O)cc5)cc4c32)ccc1C [BMX-IN-1] + Cc1nc(Nc2ncc(C(=O)Nc3c(C)cccc3Cl)s2)cc(N2CCN(CCO)CC2)n1 [Dasatinib] (partner 0.075 µM)
Put shortly:
as §1

Compound in the experiment “PAC-1 + Decitabine”: C=CCc1cccc(/C=N/NC(=O)CN2CCN(Cc3ccccc3)CC2)c1O [PAC-1] + Nc1ncn([C@H]2C[C@H](O)[C@@H](CO)O2)c(=O)n1 [Decitabine] (partner 2 µM)
Put shortly:
as §1

Compound in the experiment “BMX-IN-1 + Decitabine”: C=CC(=O)Nc1cc(-n2c(=O)ccc3cnc4ccc(-c5ccc(NS(C)(=O)=O)cc5)cc4c32)ccc1C [BMX-IN-1] + Nc1ncn([C@H]2C[C@H](O)[C@@H](CO)O2)c(=O)n1 [Decitabine] (partner 2 µM)
The method, boiled down:
as §1

In the case of NCI-H1563, the relative viability was 0.664 with BMX-IN-1 + Phenformin (first compound 0.02 µM); 0.644 with BMX-IN-1 + Phenformin (first compound 0.2 µM); 0.648 with BMX-IN-1 + Phenformin (first compound 0.6325 µM); 0.642 with BMX-IN-1 + Phenformin (first compound 2 µM); 0.854 with PAC-1 + Bortezomib (first compound 0.02 µM); 0.833 with PAC-1 + Bortezomib (first compound 0.06325 µM). In addition, the relative viability with PAC-1 + Bortezomib (first compound 0.2 µM) stood at 0.844; with PAC-1 + Bortezomib (first compound 2 µM), 0.916; with BMX-IN-1 + Dasatinib (first compound 0.02 µM) it was 0.441; in the experiment with BMX-IN-1 + Dasatinib (first compound 0.2 µM) it was 0.463; in the experiment with BMX-IN-1 + Dasatinib (first compound 0.6325 µM) it was 0.423; in the experiment with BMX-IN-1 + Dasatinib (first compound 2 µM), 0.428.

With NCI-H1623, the relative viability with BMX-IN-1 + Phenformin (first compound 0.02 µM) was 0.527; with BMX-IN-1 + Phenformin (first compound 0.2 µM), 0.676; with BMX-IN-1 + Phenformin (first compound 0.6325 µM), 0.585; with BMX-IN-1 + Phenformin (first compound 2 µM), 0.601; in the experiment with BMX-IN-1 + Dasatinib (first compound 0.02 µM) it was 0.529; in the experiment with BMX-IN-1 + Dasatinib (first compound 0.2 µM), 0.526. The relative viability was 0.569 with BMX-IN-1 + Dasatinib (first compound 0.6325 µM) and 0.504 with BMX-IN-1 + Dasatinib (first compound 2 µM).

Consider NCI-H1648, for which the relative viability with PAC-1 + Decitabine (first compound 0.02 µM) stood at 0.415; with PAC-1 + Decitabine (first compound 0.06325 µM), 0.577; in the experiment with PAC-1 + Decitabine (first compound 0.2 µM), 0.452; in the experiment with PAC-1 + Decitabine (first compound 2 µM), 0.551; with BMX-IN-1 + Decitabine (first compound 0.02 µM) it was 0.511; with BMX-IN-1 + Decitabine (first compound 0.2 µM), 0.467. In addition, the relative viability in the experiment with BMX-IN-1 + Decitabine (first compound 0.6325 µM) turned out to be 0.616; with BMX-IN-1 + Decitabine (first compound 2 µM) it was 0.506.

Take NCI-H1703: the relative viability with PAC-1 + Bortezomib (first compound 0.02 µM) amounted to 0.29; in the experiment with PAC-1 + Bortezomib (first compound 0.06325 µM), 0.268; with PAC-1 + Bortezomib (first compound 0.2 µM), 0.4; with PAC-1 + Bortezomib (first compound 2 µM) it was 0.353.

On to NCI-H1793, for which the relative viability was found to be 0.48 with PAC-1 + Decitabine (first compound 0.02 µM); 0.589 in the experiment with PAC-1 + Decitabine (first compound 0.06325 µM); 0.396 with PAC-1 + Decitabine (first compound 0.2 µM); 0.542 in the experiment with PAC-1 + Decitabine (first compound 2 µM); 0.272 in the experiment with BMX-IN-1 + Phenformin (first compound 0.02 µM); 0.398 with BMX-IN-1 + Phenformin (first compound 0.2 µM). In addition, the relative viability amounted to 0.467 with BMX-IN-1 + Phenformin (first compound 0.6325 µM); 0.433 with BMX-IN-1 + Phenformin (first compound 2 µM); 0.45 with BMX-IN-1 + Decitabine (first compound 0.02 µM); 0.535 with BMX-IN-1 + Decitabine (first compound 0.2 µM); 0.471 in the experiment with BMX-IN-1 + Decitabine (first compound 0.6325 µM); 0.589 in the experiment with BMX-IN-1 + Decitabine (first compound 2 µM). Besides, the relative viability worked out at 0.417 with BMX-IN-1 + Dasatinib (first compound 0.02 µM), 0.432 with BMX-IN-1 + Dasatinib (first compound 0.2 µM), 0.479 with BMX-IN-1 + Dasatinib (first compound 0.6325 µM) and 0.451 in the experiment with BMX-IN-1 + Dasatinib (first compound 2 µM).

As for NCI-H1944, the relative viability with PAC-1 + Decitabine (first compound 0.02 µM) is 0.435; in the experiment with PAC-1 + Decitabine (first compound 0.06325 µM) it was 0.459; with PAC-1 + Decitabine (first compound 0.2 µM) it was 0.466; in the experiment with PAC-1 + Decitabine (first compound 2 µM), 0.456; in the experiment with BMX-IN-1 + Phenformin (first compound 0.02 µM), 0.2; with BMX-IN-1 + Phenformin (first compound 0.2 µM) it was 0.219. Also, the relative viability amounted to 0.234 in the experiment with BMX-IN-1 + Phenformin (first compound 0.6325 µM); 0.205 with BMX-IN-1 + Phenformin (first compound 2 µM); 0.459 with BMX-IN-1 + Decitabine (first compound 0.02 µM); 0.402 with BMX-IN-1 + Decitabine (first compound 0.2 µM); 0.481 with BMX-IN-1 + Decitabine (first compound 0.6325 µM); 0.426 with BMX-IN-1 + Decitabine (first compound 2 µM). Moreover, the relative viability is 0.203 with BMX-IN-1 + Dasatinib (first compound 0.02 µM), 0.188 with BMX-IN-1 + Dasatinib (first compound 0.2 µM), 0.222 in the experiment with BMX-IN-1 + Dasatinib (first compound 0.6325 µM) and 0.206 in the experiment with BMX-IN-1 + Dasatinib (first compound 2 µM).

For NCI-H2170, the relative viability in the experiment with PAC-1 + Decitabine (first compound 0.02 µM) is 0.477; in the experiment with PAC-1 + Decitabine (first compound 0.06325 µM), 0.493; in the experiment with PAC-1 + Decitabine (first compound 0.2 µM), 0.42; with PAC-1 + Decitabine (first compound 2 µM), 0.453; in the experiment with BMX-IN-1 + Phenformin (first compound 0.02 µM), 0.375; with BMX-IN-1 + Phenformin (first compound 0.2 µM), 0.4. Moreover, the relative viability was 0.415 with BMX-IN-1 + Phenformin (first compound 0.6325 µM); 0.416 with BMX-IN-1 + Phenformin (first compound 2 µM); 0.454 with BMX-IN-1 + Decitabine (first compound 0.02 µM); 0.499 with BMX-IN-1 + Decitabine (first compound 0.2 µM); 0.469 with BMX-IN-1 + Decitabine (first compound 0.6325 µM); 0.495 with BMX-IN-1 + Decitabine (first compound 2 µM). The relative viability in the experiment with BMX-IN-1 + Dasatinib (first compound 0.02 µM) turned out to be 0.609; with BMX-IN-1 + Dasatinib (first compound 0.2 µM), 0.634; with BMX-IN-1 + Dasatinib (first compound 0.6325 µM) it was 0.67; with BMX-IN-1 + Dasatinib (first compound 2 µM), 0.586.

In the case of NCI-H2228, the relative viability amounted to 0.339 in the experiment with BMX-IN-1 + Phenformin (first compound 0.02 µM); 0.388 with BMX-IN-1 + Phenformin (first compound 0.2 µM); 0.458 in the experiment with BMX-IN-1 + Phenformin (first compound 0.6325 µM); 0.37 with BMX-IN-1 + Phenformin (first compound 2 µM); 0.897 in the experiment with PAC-1 + Bortezomib (first compound 0.02 µM); 1.26 in the experiment with PAC-1 + Bortezomib (first compound 0.06325 µM). Also, the relative viability was determined as 1.03 with PAC-1 + Bortezomib (first compound 0.2 µM); 1.51 in the experiment with PAC-1 + Bortezomib (first compound 2 µM); 0.497 with BMX-IN-1 + Dasatinib (first compound 0.02 µM); 0.672 with BMX-IN-1 + Dasatinib (first compound 0.2 µM); 0.593 in the experiment with BMX-IN-1 + Dasatinib (first compound 0.6325 µM); 0.561 with BMX-IN-1 + Dasatinib (first compound 2 µM).

For the cell line NCI-H2342, the relative viability was determined as 0.791 with PAC-1 + Decitabine (first compound 0.02 µM); 0.705 with PAC-1 + Decitabine (first compound 0.06325 µM); 0.704 with PAC-1 + Decitabine (first compound 0.2 µM); 0.733 with PAC-1 + Decitabine (first compound 2 µM); 0.651 in the experiment with BMX-IN-1 + Phenformin (first compound 0.02 µM); 0.7 with BMX-IN-1 + Phenformin (first compound 0.2 µM). Moreover, the relative viability in the experiment with BMX-IN-1 + Phenformin (first compound 0.6325 µM) worked out at 0.55; with BMX-IN-1 + Phenformin (first compound 2 µM), 0.617; with BMX-IN-1 + Decitabine (first compound 0.02 µM), 0.698; with BMX-IN-1 + Decitabine (first compound 0.2 µM), 0.751; in the experiment with BMX-IN-1 + Decitabine (first compound 0.6325 µM), 0.748; in the experiment with BMX-IN-1 + Decitabine (first compound 2 µM), 0.742. For the same cell line, the relative viability with BMX-IN-1 + Dasatinib (first compound 0.02 µM) was 0.31; with BMX-IN-1 + Dasatinib (first compound 0.2 µM), 0.326; with BMX-IN-1 + Dasatinib (first compound 0.6325 µM), 0.307; in the experiment with BMX-IN-1 + Dasatinib (first compound 2 µM), 0.327.

With SW 900, the relative viability was found to be 0.393 with PAC-1 + Decitabine (first compound 0.06325 µM); 0.478 with PAC-1 + Decitabine (first compound 0.2 µM); 0.378 in the experiment with PAC-1 + Decitabine (first compound 2 µM); 0.545 in the experiment with BMX-IN-1 + Phenformin (first compound 0.02 µM); 0.82 with BMX-IN-1 + Phenformin (first compound 0.2 µM); 0.614 with BMX-IN-1 + Phenformin (first compound 0.6325 µM). The relative viability with BMX-IN-1 + Phenformin (first compound 2 µM) was found to be 0.543; with BMX-IN-1 + Decitabine (first compound 0.02 µM), 0.564; with BMX-IN-1 + Decitabine (first compound 0.2 µM) it was 0.51; with BMX-IN-1 + Decitabine (first compound 0.6325 µM), 0.461; with BMX-IN-1 + Decitabine (first compound 2 µM) it was 0.539; with BMX-IN-1 + Dasatinib (first compound 0.02 µM), 0.568. The values for the relative viability in the experiment with BMX-IN-1 + Dasatinib (first compound 0.2 µM), with BMX-IN-1 + Dasatinib (first compound 0.6325 µM) and in the experiment with BMX-IN-1 + Dasatinib (first compound 2 µM) were 0.835, 0.521 and 0.714, respectively.
